PubChem BioAssay AID1963866 (Molecular Pharmacology Branch, DTP, NCI, 2024)

Test system: PDC KRAS tumor spheroids with HUVEC/MSC, viability
Experiment: Anticancer human tumor 349418-098-R-PDC patient-derived lung adenocarcinoma cell line growth inhibition [KRAS2]
Conditions: for IC50: curve of first compound; for viability, T/C: stronger effect = lower value; active = viability on the fitted dose curve at most 10% of control; inactive = the rest
In short: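 Combination screen of spheroid viability in tumor-cell co-cultures with endothelial (HUVEC) and mesenchymal stem cell stroma. Each agent was tested in half-log dilutions, topping at clinical Cmax or at 10 microM without a known Cmax.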

[1] = second compound 0.1 µM, first compound 0.000316 µM
[2] = second compound 0.1 µM, first compound 0.001 µM
[3] = second compound 0.1 µM, first compound 0.00316 µM
[4] = second compound 0.1 µM, first compound 0.01 µM
[5] = second compound 0.1 µM, first compound 0.0316 µM
[6] = second compound 0.316 µM, first compound 0.000316 µM
[7] = second compound 0.316 µM, first compound 0.001 µM
[8] = second compound 0.316 µM, first compound 0.00316 µM
[9] = second compound 0.316 µM, first compound 0.01 µM
[10] = second compound 0.316 µM, first compound 0.0316 µM
[11] = second compound 1 µM, first compound 0.000316 µM
[12] = second compound 1 µM, first compound 0.001 µM
[13] = second compound 1 µM, first compound 0.00316 µM
[14] = second compound 1 µM, first compound 0.01 µM
[15] = second compound 1 µM, first compound 0.0316 µM
[16] = second compound 3.16 µM, first compound 0.000316 µM
[17] = second compound 3.16 µM, first compound 0.001 µM
[18] = second compound 3.16 µM, first compound 0.00316 µM
[19] = second compound 3.16 µM, first compound 0.01 µM
[20] = second compound 3.16 µM, first compound 0.0316 µM
[21] = second compound 10 µM, first compound 0.000316 µM
[22] = second compound 10 µM, first compound 0.001 µM
[23] = second compound 10 µM, first compound 0.00316 µM
[24] = second compound 10 µM, first compound 0.01 µM
[25] = second compound 10 µM, first compound 0.0316 µM
[26] = second compound 0.1 µM, first compound 0.1 µM
[27] = second compound 0.316 µM, first compound 0.1 µM
[28] = second compound 1 µM, first compound 0.1 µM
[29] = second compound 3.16 µM, first compound 0.1 µM
[30] = second compound 10 µM, first compound 0.1 µM
[31] = second compound 0.1 µM, first compound 0.316 µM
[32] = second compound 0.1 µM, first compound 1 µM
[33] = second compound 0.1 µM, first compound 3.16 µM
[34] = second compound 0.1 µM, first compound 10 µM
[35] = second compound 0.316 µM, first compound 0.316 µM
[36] = second compound 0.316 µM, first compound 1 µM
[37] = second compound 0.316 µM, first compound 3.16 µM
[38] = second compound 0.316 µM, first compound 10 µM
[39] = second compound 1 µM, first compound 0.316 µM
[40] = second compound 1 µM, first compound 1 µM
[41] = second compound 1 µM, first compound 3.16 µM
[42] = second compound 1 µM, first compound 10 µM
[43] = second compound 3.16 µM, first compound 0.316 µM
[44] = second compound 3.16 µM, first compound 1 µM
[45] = second compound 3.16 µM, first compound 3.16 µM
[46] = second compound 3.16 µM, first compound 10 µM
[47] = second compound 10 µM, first compound 0.316 µM
[48] = second compound 10 µM, first compound 1 µM
[49] = second compound 10 µM, first compound 3.16 µM
[50] = second compound 10 µM, first compound 10 µM
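Also: spheroids exposed to compounds for seven days before readout.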

CC(=O)Nc1cccc(-n2c(=O)n(C3CC3)c(=O)c3c(Nc4ccc(I)cc4F)n(C)c(=O)c(C)c32)c1 + CNCc1ccccc1-c1csc(C(C)Nc2nc(C)nc3cc(OC)c(OC)cc23)c1
< 0.1 nM: IC50 (second compound 0.1 µM) | IC50 (second compound 0.316 µM) | IC50 (second compound 1 µM) | IC50 (second compound 3.16 µM) | IC50 (second compound 10 µM)
active: viability, T/C [3] 9.99% | viability, T/C [4] 8.08% | viability, T/C [5] 5.08% | viability, T/C [7] 9.67% | viability, T/C [8] 7.39% | viability, T/C [9] 7.29% | viability, T/C [10] 5.28% | viability, T/C [11] 8.66% | viability, T/C [12] 7.27% | viability, T/C [13] 5.84% | viability, T/C [14] 5.69% | viability, T/C [15] 4.51% | viability, T/C (second compound 3.16 µM, first compound 0.0001 µM) 0.05% | viability, T/C [16] 0.03% | viability, T/C [17] 0.02% | viability, T/C [18] 0.02% | viability, T/C [19] 0.1% | viability, T/C [20] 0.08% | viability, T/C (second compound 10 µM, first compound 0.0001 µM) 0.13% | viability, T/C [21] 0.08% | viability, T/C [22] 0.07% | viability, T/C [23] 0.07% | viability, T/C [24] 0.08% | viability, T/C [25] 0.13%
inactive: viability, T/C (second compound 0.1 µM, first compound 0.0001 µM) 21.2% | viability, T/C [1] 12.7% | viability, T/C [2] 10.5% | viability, T/C (second compound 0.316 µM, first compound 0.0001 µM) 20.8% | viability, T/C [6] 12.2% | viability, T/C (second compound 1 µM, first compound 0.0001 µM) 17%

CC(C)n1nc(-c2ccc3oc(N)nc3c2)c2c(N)ncnc21 + CNCc1ccccc1-c1csc(C(C)Nc2nc(C)nc3cc(OC)c(OC)cc23)c1
inactive: viability, T/C [1] 103% | viability, T/C [2] 49.1% | viability, T/C [3] 20.9% | viability, T/C [4] 8.09% | viability, T/C [6] 106% | viability, T/C [7] 43.2% | viability, T/C [8] 13.3% | viability, T/C [11] 73.1% | viability, T/C [12] 26.3%
active: viability, T/C [5] 8.36% | viability, T/C [26] 7.55% | viability, T/C [9] 8.02% | viability, T/C [10] 7.42% | viability, T/C [27] 6.91% | viability, T/C [13] 9.14% | viability, T/C [14] 7.12% | viability, T/C [15] 5.59% | viability, T/C [28] 6.98% | viability, T/C [16] 0.08% | viability, T/C [17] 0.18% | viability, T/C [18] 0.03% | viability, T/C [19] 0.06% | viability, T/C [20] 0.06% | viability, T/C [29] 0.13% | viability, T/C [21] 0.08% | viability, T/C [22] 0.08% | viability, T/C [23] 0.07% | viability, T/C [24] 0.09% | viability, T/C [25] 0.09% | viability, T/C [30] 0.15%
0.987 nM: IC50 (second compound 0.1 µM)
< 0.316 nM: IC50 (second compound 3.16 µM) | IC50 (second compound 10 µM)
0.883 nM: IC50 (second compound 0.316 µM)
0.558 nM: IC50 (second compound 1 µM)

CC1(C)CCC(CN2CCN(c3ccc(C(=O)NS(=O)(=O)c4ccc(NCC5CCOCC5)c([N+](=O)[O-])c4)c(Oc4cnc5[nH]ccc5c4)c3)CC2)=C(c2ccc(Cl)cc2)C1 + CNCc1ccccc1-c1csc(C(C)Nc2nc(C)nc3cc(OC)c(OC)cc23)c1
1690 nM: IC50 (second compound 0.316 µM)
< 31.6 nM: IC50 (second compound 3.16 µM) | IC50 (second compound 10 µM)
inactive: viability, T/C [5] 101% | viability, T/C [26] 99.7% | viability, T/C [31] 94.6% | viability, T/C [32] 89.7% | viability, T/C [33] 11.3% | viability, T/C [10] 97% | viability, T/C [27] 96.4% | viability, T/C [35] 87% | viability, T/C [36] 82.6% | viability, T/C [37] 11.5% | viability, T/C [15] 74.1% | viability, T/C [28] 66.9% | viability, T/C [39] 72% | viability, T/C [40] 61.6%
1790 nM: IC50 (second compound 0.1 µM)
1280 nM: IC50 (second compound 1 µM)
active: viability, T/C [34] 5.21% | viability, T/C [38] 3.91% | viability, T/C [41] 6.96% | viability, T/C [42] 2.51% | viability, T/C [20] 0.13% | viability, T/C [29] 0.14% | viability, T/C [43] 0.11% | viability, T/C [44] 0.12% | viability, T/C [45] 0.12% | viability, T/C [46] 0.15% | viability, T/C [25] 0.11% | viability, T/C [30] 0.12% | viability, T/C [47] 0.1% | viability, T/C [48] 0.09% | viability, T/C [49] 0.08% | viability, T/C [50] 0.15%

COC(=O)c1ccc2c(C(=Nc3ccc(N(C)C(=O)CN4CCN(C)CC4)cc3)c3ccccc3)c(O)[nH]c2c1 + CNCc1ccccc1-c1csc(C(C)Nc2nc(C)nc3cc(OC)c(OC)cc23)c1
270 nM: IC50 (second compound 0.316 µM)
< 31.6 nM: IC50 (second compound 3.16 µM) | IC50 (second compound 10 µM)
active: viability, T/C [41] 1.75% | viability, T/C [42] 1.57% | viability, T/C [20] 0.32% | viability, T/C [29] 0.25% | viability, T/C [43] 0.19% | viability, T/C [44] 0.06% | viability, T/C [45] 0.13% | viability, T/C [46] 0.15% | viability, T/C [25] 0.09% | viability, T/C [30] 0.07% | viability, T/C [47] 0.06% | viability, T/C [48] 0.06% | viability, T/C [49] 0.05% | viability, T/C [50] 0.09%
inactive: viability, T/C [5] 84.1% | viability, T/C [26] 96.6% | viability, T/C [31] 55.8% | viability, T/C [32] 29.8% | viability, T/C [33] 12.4% | viability, T/C [34] 12.9% | viability, T/C [10] 75.3% | viability, T/C [27] 84.9% | viability, T/C [35] 42.5% | viability, T/C [36] 25.7% | viability, T/C [37] 6.84% | viability, T/C [38] 13% | viability, T/C [15] 56.5% | viability, T/C [28] 41.4% | viability, T/C [39] 27.6% | viability, T/C [40] 10.6%
445 nM: IC50 (second compound 0.1 µM)
53.6 nM: IC50 (second compound 1 µM)

COc1cc(Nc2ncc3c(n2)-c2ccc(Cl)cc2C(c2c(F)cccc2OC)=NC3)ccc1C(=O)O + CNCc1ccccc1-c1csc(C(C)Nc2nc(C)nc3cc(OC)c(OC)cc23)c1
< 31.6 nM: IC50 (second compound 0.1 µM) | IC50 (second compound 0.316 µM) | IC50 (second compound 1 µM) | IC50 (second compound 3.16 µM) | IC50 (second compound 10 µM)
active: viability, T/C [20] 0.15% | viability, T/C [29] 0.11% | viability, T/C [43] 0.14% | viability, T/C [44] 0.14% | viability, T/C [45] 0.08% | viability, T/C [46] 0.29% | viability, T/C [25] 0.08% | viability, T/C [30] 0.07% | viability, T/C [47] 0.08% | viability, T/C [48] 0.08% | viability, T/C [49] 0.08% | viability, T/C [50] 0.13%
inactive: viability, T/C [5] 51.9% | viability, T/C [26] 26.1% | viability, T/C [31] 38.8% | viability, T/C [32] 36.7% | viability, T/C [33] 32.7% | viability, T/C [34] 24.8% | viability, T/C [10] 51.1% | viability, T/C [27] 26.1% | viability, T/C [35] 35.7% | viability, T/C [36] 32.2% | viability, T/C [37] 32.8% | viability, T/C [38] 28.8% | viability, T/C [15] 40.2% | viability, T/C [28] 23.6% | viability, T/C [39] 32.4% | viability, T/C [40] 26.8% | viability, T/C [41] 25.9% | viability, T/C [42] 26.7%

COc1cc2nccc(Oc3ccc(NC(=O)C4(C(=O)Nc5ccc(F)cc5)CC4)cc3)c2cc1OC + CNCc1ccccc1-c1csc(C(C)Nc2nc(C)nc3cc(OC)c(OC)cc23)c1
596 nM: IC50 (second compound 1 µM)
1570 nM: IC50 (second compound 0.1 µM)
active: viability, T/C [41] 0.88% | viability, T/C [42] 1.04% | viability, T/C [20] 0.14% | viability, T/C [29] 0.09% | viability, T/C [43] 0.12% | viability, T/C [44] 0.04% | viability, T/C [45] 0.12% | viability, T/C [46] 0.08% | viability, T/C [25] 0.08% | viability, T/C [30] 0.07% | viability, T/C [47] 0.08% | viability, T/C [48] 0.24% | viability, T/C [49] 0.07% | viability, T/C [50] 0.13%
1640 nM: IC50 (second compound 0.316 µM)
< 31.6 nM: IC50 (second compound 3.16 µM) | IC50 (second compound 10 µM)
inactive: viability, T/C [5] 101% | viability, T/C [26] 99.5% | viability, T/C [31] 95.4% | viability, T/C [32] 73.3% | viability, T/C [33] 9.71% | viability, T/C [34] 18.6% | viability, T/C [10] 97.4% | viability, T/C [27] 95% | viability, T/C [35] 85.5% | viability, T/C [36] 79.6% | viability, T/C [37] 7.07% | viability, T/C [38] 14.3% | viability, T/C [15] 95.4% | viability, T/C [28] 93.9% | viability, T/C [39] 78.4% | viability, T/C [40] 26.9%
